{
  "source": "patent US10369159B2",
  "about": "“Estrogen receptor β partial agonist having estrogen receptor α inhibitory effect, and gynecological disease therapeutic agent using same” (NOBELPHARMA CO., LTD., priority 2015, dated 2019)",
  "key": {"rat endometriosis model": {"system": "rat endometriosis model", "test": "Wet weight of each organ (pituitary, adrenal glands, left uterine horn, femur) in the rat endometriosis model", "format": "in vivo", "conditions": "for Wet weight of pituitary: vehicle 0.0271 g; for Wet weight of adrenal gland (right): vehicle 0.0425 g; for Wet weight of adrenal gland (left): vehicle 0.0468 g; for Wet weight of adrenal glands (the sum of the left and right): vehicle 0.0893 g; for Wet weight of left uterine horn: vehicle 0.1428 g; for Wet weight of femur (left): vehicle 0.7589 g", "procedure": "On the previous day of the model preparation (the grouping date), under inhalation anesthesia of 2% isoflurane, an incision was made in the abdomen of the rats. Subsequently, about 5 mL of blood was collected with a syringe from the abdominal vena cava and collected in a Venoject II vacuum blood collection tube (EDTA-2K), then cut the abdominal vena cava and abdominal aorta to euthanize by exsanguination. The right uterine horn was excised and cut out two strips (approximately 5 mm×5 mm), then cut out strips (approximately 5 mm×5 mm) from the graft sites, the right and left abdominal walls (muscle layer and peritoneum). After that, wet weight of each strip and abdominal wall was measured. Then pituitary, adrenal glands (both sides), left uterine horn, mammary gland (excised with the nipples, three on the lower abdomen, a sample for RNA measurement was approximately 3 mm in diameter) and femur (left side) were excised.\nAs for the pituitary, adrenal glands (both sides), left uterine horn and femur, wet weight was measured. The femur bone after wet weight measurement was discarded.\nThe administration was made orally, and the drug was forcibly administered into a stomach once a day using a flexible oral sonde and syringe for 28 consecutive days.\nOn the next day of the final administration, the abdominal dissection was made under inhalation anesthesia of 2% isoflurane, and the grafted uterine strips (two pieces) were excised, and photographed with a digital camera. Subsequently, about 5 mL of blood was collected with a syringe from the abdominal vena cava and collected in a Venoject II vacuum blood collection tube (EDTA-2K), then cut the abdominal vena cava and abdominal aorta to euthanize by exsanguination. Then pituitary, adrenal glands (both sides), graft uterine strips (two pieces), left uterine horn, mammary gland (excised with the nipples, three on the lower abdomen, a sample for RNA measurement was approximately 3 mm in diameter) and femur (left side) were excised.\nAs for the pituitary, adrenal glands (both sides), grafted uterine strip (one piece), left uterine horn and femur, wet weight was measured. The femur bone after wet weight measurement was discarded."}, "Era": {"system": "Era", "test": "Gene expression analysis of endometrial implants (TaqMan), Era", "format": "in vivo, rat", "conditions": "for Expression level Era: endometrial implants, corrected by GAPDH, n 6, E2 control 44.2 ± 18.9", "procedure": "(§1) Total RNA was extracted […] the rat-derived endometrial graft (27 specimens), then quality of the RNA was inspected with a spectrophotometer and bio-analyzer, and then reverse transcription reaction of the RNA was performed, followed by gene expression analysis was performed according to TaqMan method.\n(§2) RNA was extracted from the rat uterine horn strips and grafted uterine strip using the RNeasy Fibrous Tissue Mini Kit.\n(§3) Concentration of the extracted RNA was measured with a NanaoDrop. Also RIN measurements using a bioanalyzer (6000 nano kits) was carried out. A 6000 pico-kit was used for bioanalyzing of the two samples with low yield (Sample ID: 202, 507).\n(§4) cDNA obtained by reverse transcription reaction from 1000 ng/uL of commercially available Rat Tissue Universal Reference Total RNA (Catalog Number PR-UR-100, ZYAGEN Inc.) using SuperScript VILO Master Mix (hereinafter “Standard”) was used as a standard substance.\n(§5) Based on the concentration measured with a spectrophotometer, reverse transcription reaction of the specimen with Super Script VILO Master Mix was performed to give 50 ng/uL of cDNA (the following example). As for the samples with low yield, that is Sample ID: 202, 502, 507, the reverse transcription reaction was performed to give 25 ng/uL, 25 ng/uL, and 12.5 ng/uL of cDNA, respectively.\n(§6) TaqMan reaction by using Step One Plus Real-Time PCR System was performed with standard 250, 62.5, 15.625, 3.9, 0.98 ng/well or sample 5.0 ng/well. A cycle of reaction, two minutes at 50° C. and 10 minutes at 95° C., followed by 15 seconds at 95° C. and one minute at 60° C., was repeated 40 cycles, then the fluorescence value FAM was measured in real time after the reaction at 60° C. In addition to the target eight genes, GAPDH gene as an internal control gene was measured. All the standards and samples were measured in triplicate.\n(§7) From each of the two calibration curves (target gene, GAPDH gene) obtained from the standard, gene expressions level of the target gene and GAPDH gene of the sample was calculated, respectively. Then, the target gene expression level was corrected by the GAPDH gene expression level, the internal control gene. And then, an average gene expression level of the samples in each group was calculated, followed by the average gene expression level of the two groups was used as a standard to compare with each of the other groups."}, "PR": {"system": "PR", "test": "Gene expression analysis of endometrial implants (TaqMan), PR", "format": "in vivo, rat", "conditions": "for Expression level PR: endometrial implants, corrected by GAPDH, n 6, E2 control 101.0 ± 40.3", "procedure": "as §1, §2, §3, §4, §5, §6, §7"}, "IL-6": {"system": "IL-6", "test": "Gene expression analysis of endometrial implants (TaqMan), IL-6", "format": "in vivo, rat", "conditions": "for Expression level IL-6: endometrial implants, corrected by GAPDH, n 6, E2 control 14.24 ± 8.74", "procedure": "as §1, §2, §3, §4\n(§8) Based on the concentration measured with a spectrophotometer, reverse transcription reaction of the specimen with Super Script VILO Master Mix was performed to give 50 ng/uL of cDNA (the following example). […]\nas §6\n(§9) From each of the two calibration curves (target gene, GAPDH gene) obtained from the standard, gene expressions level of the target gene and GAPDH gene of the sample was calculated, respectively. […] And then, an average gene expression level of the samples in each group was calculated, followed by the average gene expression level of the two groups was used as a standard to compare with each of the other groups."}, "MCP-1": {"system": "MCP-1", "test": "Gene expression analysis of endometrial implants (TaqMan), MCP-1", "format": "in vivo, rat", "conditions": "corrected by GAPDH, n 6, E2 control 29.47 ± 20.81", "procedure": "as §1, §2, §3, §4, §8, §6, §9"}, "PEDF": {"system": "PEDF", "test": "Gene expression analysis of endometrial implants (TaqMan), PEDF", "format": "in vivo, rat", "conditions": "for Expression level PEDF: endometrial implants, corrected by GAPDH, n 6, E2 control 4.51 ± 1.39", "procedure": "as §1, §2, §3, §4, §8, §6, §9"}, "[1]": {"conditions": "in comparison with the E2 control group"}},
  "data": [
    {"smiles": "CCN(CC)Cc1ccc(OCC[C@H]2CC[C@H]3[C@@H]4[C@H](C)Cc5cc(O)ccc5[C@H]4CC[C@]23C)c(OC)c1", "note": "[SR16234, (7α)-21-[4-[(diethylamino)methyl]-2-methoxyphenoxy]-7-methyl-19-norpregna-1,3,5(10)-triene-3-ol]", "values": [
      {"measurement": "Wet weight of pituitary", "setting": "rat endometriosis model; 0.1 mg/kg p.o. 28 days", "value": 0.0226, "unit": "g"},
      {"measurement": "Wet weight of adrenal gland (right)", "setting": "rat endometriosis model; 0.1 mg/kg p.o. 28 days", "value": 0.0400, "unit": "g"},
      {"measurement": "Wet weight of adrenal gland (left)", "setting": "rat endometriosis model; 0.1 mg/kg p.o. 28 days", "value": 0.0438, "unit": "g"},
      {"measurement": "Wet weight of adrenal glands (the sum of the left and right)", "setting": "rat endometriosis model; 0.1 mg/kg p.o. 28 days", "value": 0.0838, "unit": "g"},
      {"measurement": "Wet weight of left uterine horn", "setting": "rat endometriosis model; 0.1 mg/kg p.o. 28 days", "value": 0.1261, "unit": "g"},
      {"measurement": "Wet weight of femur (left)", "setting": "rat endometriosis model; 0.1 mg/kg p.o. 28 days", "value": 0.7597, "unit": "g"},
      {"measurement": "Weight trend in comparison with the vehicle control group after the Day 14 (in words)", "setting": "rat endometriosis model; 0.3 mg/kg and 0.1 mg/kg administered group", "value": "very mild weight suppression trend"},
      {"measurement": "Wet weight of pituitary", "setting": "rat endometriosis model; 0.3 mg/kg p.o. 28 days", "value": 0.0187, "unit": "g"},
      {"measurement": "Wet weight of adrenal gland (right)", "setting": "rat endometriosis model; 0.3 mg/kg p.o. 28 days", "value": 0.0381, "unit": "g"},
      {"measurement": "Wet weight of adrenal gland (left)", "setting": "rat endometriosis model; 0.3 mg/kg p.o. 28 days", "value": 0.0398, "unit": "g"},
      {"measurement": "Wet weight of adrenal glands (the sum of the left and right)", "setting": "rat endometriosis model; 0.3 mg/kg p.o. 28 days", "value": 0.0779, "unit": "g"},
      {"measurement": "Wet weight of left uterine horn", "setting": "rat endometriosis model; 0.3 mg/kg p.o. 28 days", "value": 0.1119, "unit": "g"},
      {"measurement": "Wet weight of femur (left)", "setting": "rat endometriosis model; 0.3 mg/kg p.o. 28 days", "value": 0.7598, "unit": "g"},
      {"measurement": "Wet weight of pituitary", "setting": "rat endometriosis model; 1.0 mg/kg p.o. 28 days", "value": 0.0174, "unit": "g"},
      {"measurement": "Wet weight of adrenal gland (right)", "setting": "rat endometriosis model; 1.0 mg/kg p.o. 28 days", "value": 0.0357, "unit": "g"},
      {"measurement": "Wet weight of adrenal gland (left)", "setting": "rat endometriosis model; 1.0 mg/kg p.o. 28 days", "value": 0.0375, "unit": "g"},
      {"measurement": "Wet weight of adrenal glands (the sum of the left and right)", "setting": "rat endometriosis model; 1.0 mg/kg p.o. 28 days", "value": 0.0732, "unit": "g"},
      {"measurement": "Wet weight of left uterine horn", "setting": "rat endometriosis model; 1.0 mg/kg p.o. 28 days", "value": 0.1016, "unit": "g"},
      {"measurement": "Wet weight of femur (left)", "setting": "rat endometriosis model; 1.0 mg/kg p.o. 28 days", "value": 0.7301, "unit": "g"},
      {"measurement": "Wet weight of organs in comparison with the vehicle control group (in words)", "setting": "rat endometriosis model; SR16234 administered groups, 0.1, 0.3 and 1.0 mg/kg", "value": "decreasing trend associated with the dose increase"},
      {"measurement": "Expression level Era", "setting": "Era; 0.1 mg/kg", "value": "39.3 ± 14.3", "unit": "ng"},
      {"measurement": "Expression level Era", "setting": "Era; 0.3 mg/kg", "value": "47.6 ± 14.9", "unit": "ng"},
      {"measurement": "Expression level Era", "setting": "Era; 1 mg/kg", "value": "33.2 ± 20.7", "unit": "ng"},
      {"measurement": "Effect on the estrogen receptor gene expression of Era (in words)", "setting": "Era; [1]", "value": "not observed"},
      {"measurement": "Expression level PR", "setting": "PR; 0.1 mg/kg", "value": "94.6 ± 37.7", "unit": "ng"},
      {"measurement": "Expression level PR", "setting": "PR; 0.3 mg/kg", "value": "176.2 ± 81.1", "unit": "ng"},
      {"measurement": "Expression level PR", "setting": "PR; 1 mg/kg", "value": "127.8 ± 89.1", "unit": "ng"},
      {"measurement": "Effect on gene expression of PR (in words)", "setting": "PR; [1]", "value": "slight increase trend"},
      {"measurement": "Expression level IL-6", "setting": "IL-6; 0.1 mg/kg", "value": "9.77 ± 9.78", "unit": "ng"},
      {"measurement": "Expression level IL-6", "setting": "IL-6; 1 mg/kg", "value": "6.74 ± 4.96", "unit": "ng"},
      {"measurement": "Effect on the gene expression of IL-6 (in words)", "setting": "IL-6; in comparison with the E2 control group, FIG. 3", "value": "dose-dependently inhibited"},
      {"measurement": "Expression level MCP-1", "setting": "MCP-1; 0.1 mg/kg", "value": "41.95 ± 21.68", "unit": "ng"},
      {"measurement": "Expression level MCP-1", "setting": "MCP-1; 0.3 mg/kg", "value": "28.30 ± 10.93", "unit": "ng"},
      {"measurement": "Expression level MCP-1", "setting": "MCP-1; 1 mg/kg", "value": "26.70 ± 18.30", "unit": "ng"},
      {"measurement": "Expression level PEDF", "setting": "PEDF; 0.1 mg/kg", "value": "6.44 ± 1.56", "unit": "ng"},
      {"measurement": "Expression level PEDF", "setting": "PEDF; 1 mg/kg", "value": "5.93 ± 3.01", "unit": "ng"},
      {"measurement": "Effect on the gene expression of PEDF (in words)", "setting": "PEDF; in comparison with the E2 control group, FIG. 2", "value": "increase trend"}
    ]}
  ]
}
